Values of other authors in US20100093758A1, “PYRIDINE SULFONAMIDE MODULATORS OF ENDOTHELIN-A RECEPTOR” (AUSPEX PHARMACEUTICALS, INC., priority 2008, published 2010).

Key:
[1] = not given; remark: listed apart in the source

time at which maximum plasma levels are reached (in vivo): ≤ 4.5 h
urinary excretion (in vivo): below 0.1 % of any dose
Compound: COc1ccccc1Oc1c(NS(=O)(=O)c2ccc(C)cn2)nc(-c2ccncc2)nc1OC [Avosentan, 5-Methyl-pyridine-2-sulfonic acid [6-methoxy-5-(2-methoxy-phenoxy)-2-pyridin-4-yl-pyrimidin-4-yl]-amide]
dose dependence of Cmax and AUC (doses up to 100 mg): increase linearly with doses up to 100 mg
food effect on exposure and Cmax (with food): does not affect overall exposure but increases Cmax
fluid retention ([1]; at high concentrations): higher-than-expected rate of fluid retention
adverse events ([1]; typical for vasodilating agents): headache, nausea and vomiting, dizziness, and postural hypotension
